In BindingDB's records for PubMed 10991999 (Cocensys, 2000):

Key:
[1] = molecular target: Gamma-aminobutyric acid receptor subunit alpha-4 (Rattus norvegicus, UniProt P28471)
[2] = molecular target: Gamma-aminobutyric acid receptor subunit alpha-1 (Rattus norvegicus, UniProt P62813)
[3] = molecular target: Gamma-aminobutyric acid receptor subunit alpha-2 (Rattus norvegicus, UniProt P23576)
[4] = molecular target: Gamma-aminobutyric acid receptor subunit alpha-3 (Rattus norvegicus, UniProt P20236)
[5] = molecular target: Gamma-aminobutyric acid receptor subunit alpha-5 (Rattus norvegicus, UniProt P19969)
[6] = molecular target: Gamma-aminobutyric acid receptor subunit alpha-6 (Rattus norvegicus, UniProt P30191)
Gamma-aminobutyric acid receptor subunit alpha-6, sequence (P30191 whole entry): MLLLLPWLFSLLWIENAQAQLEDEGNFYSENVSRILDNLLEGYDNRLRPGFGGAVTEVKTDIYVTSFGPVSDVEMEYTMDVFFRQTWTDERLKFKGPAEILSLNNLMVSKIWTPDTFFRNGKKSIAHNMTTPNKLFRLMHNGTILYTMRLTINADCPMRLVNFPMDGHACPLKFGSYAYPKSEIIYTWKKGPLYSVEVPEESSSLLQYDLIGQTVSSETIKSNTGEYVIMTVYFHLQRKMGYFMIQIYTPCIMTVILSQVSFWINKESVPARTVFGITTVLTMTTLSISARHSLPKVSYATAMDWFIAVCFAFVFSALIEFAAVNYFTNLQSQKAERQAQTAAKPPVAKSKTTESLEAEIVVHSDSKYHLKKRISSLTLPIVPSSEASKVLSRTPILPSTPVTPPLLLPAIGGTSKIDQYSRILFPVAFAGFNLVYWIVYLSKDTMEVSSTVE

Gamma-aminobutyric acid receptor subunit alpha-1, sequence (P62813 whole entry): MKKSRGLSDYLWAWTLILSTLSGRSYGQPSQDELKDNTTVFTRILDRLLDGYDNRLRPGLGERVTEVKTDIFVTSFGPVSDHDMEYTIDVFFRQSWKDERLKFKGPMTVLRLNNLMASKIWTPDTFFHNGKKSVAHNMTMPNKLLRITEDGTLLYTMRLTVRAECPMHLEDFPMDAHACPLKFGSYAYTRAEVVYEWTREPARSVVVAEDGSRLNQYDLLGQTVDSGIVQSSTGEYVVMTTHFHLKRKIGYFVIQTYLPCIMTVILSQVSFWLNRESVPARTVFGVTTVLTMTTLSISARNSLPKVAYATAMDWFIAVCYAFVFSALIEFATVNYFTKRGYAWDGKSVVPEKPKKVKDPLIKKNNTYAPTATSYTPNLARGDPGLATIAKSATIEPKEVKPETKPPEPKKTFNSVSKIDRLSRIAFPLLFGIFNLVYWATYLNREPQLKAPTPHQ
Gamma-aminobutyric acid receptor subunit alpha-4, sequence (P28471 whole entry): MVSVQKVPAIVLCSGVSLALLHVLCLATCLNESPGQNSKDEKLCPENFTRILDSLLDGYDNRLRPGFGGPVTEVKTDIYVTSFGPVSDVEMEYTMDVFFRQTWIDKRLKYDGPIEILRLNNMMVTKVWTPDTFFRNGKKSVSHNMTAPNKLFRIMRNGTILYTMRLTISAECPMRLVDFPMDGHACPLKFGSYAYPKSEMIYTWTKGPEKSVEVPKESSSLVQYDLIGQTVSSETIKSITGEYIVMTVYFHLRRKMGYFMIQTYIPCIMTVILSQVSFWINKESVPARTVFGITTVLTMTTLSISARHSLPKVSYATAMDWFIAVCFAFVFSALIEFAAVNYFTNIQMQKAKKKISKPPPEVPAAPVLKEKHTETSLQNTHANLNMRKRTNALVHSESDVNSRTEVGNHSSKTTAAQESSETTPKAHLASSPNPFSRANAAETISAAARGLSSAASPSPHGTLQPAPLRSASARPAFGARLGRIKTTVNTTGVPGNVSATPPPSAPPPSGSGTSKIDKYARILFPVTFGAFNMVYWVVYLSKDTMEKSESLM
Gamma-aminobutyric acid receptor subunit alpha-3, sequence (P20236 whole entry I342M/K409L): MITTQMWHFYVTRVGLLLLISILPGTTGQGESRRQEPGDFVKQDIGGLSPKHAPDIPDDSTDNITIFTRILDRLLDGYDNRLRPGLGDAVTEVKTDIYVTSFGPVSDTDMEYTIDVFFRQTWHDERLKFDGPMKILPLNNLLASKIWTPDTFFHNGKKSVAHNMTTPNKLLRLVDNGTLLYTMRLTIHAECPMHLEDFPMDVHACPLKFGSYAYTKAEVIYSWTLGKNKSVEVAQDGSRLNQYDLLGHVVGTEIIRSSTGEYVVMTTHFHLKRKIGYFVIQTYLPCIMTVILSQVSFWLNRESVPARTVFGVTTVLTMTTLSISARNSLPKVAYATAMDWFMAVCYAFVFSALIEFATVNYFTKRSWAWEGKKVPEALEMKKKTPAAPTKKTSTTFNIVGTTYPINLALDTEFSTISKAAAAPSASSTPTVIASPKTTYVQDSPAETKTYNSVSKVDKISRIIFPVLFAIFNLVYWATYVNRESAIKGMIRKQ
Gamma-aminobutyric acid receptor subunit alpha-5, sequence (P19969 whole entry): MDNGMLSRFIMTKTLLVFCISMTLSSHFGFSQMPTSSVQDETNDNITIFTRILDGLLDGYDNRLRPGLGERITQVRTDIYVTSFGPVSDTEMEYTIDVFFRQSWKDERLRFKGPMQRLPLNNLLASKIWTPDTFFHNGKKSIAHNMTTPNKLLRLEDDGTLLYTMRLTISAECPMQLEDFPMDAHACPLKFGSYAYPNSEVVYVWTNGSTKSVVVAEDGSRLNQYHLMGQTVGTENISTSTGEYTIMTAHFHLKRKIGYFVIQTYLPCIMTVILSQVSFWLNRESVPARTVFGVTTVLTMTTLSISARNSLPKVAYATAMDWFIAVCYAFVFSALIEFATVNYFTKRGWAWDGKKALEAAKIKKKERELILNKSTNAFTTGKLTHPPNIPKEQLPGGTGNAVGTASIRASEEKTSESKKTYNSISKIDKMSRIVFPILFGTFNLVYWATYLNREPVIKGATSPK
Gamma-aminobutyric acid receptor subunit alpha-2, sequence (P23576 whole entry): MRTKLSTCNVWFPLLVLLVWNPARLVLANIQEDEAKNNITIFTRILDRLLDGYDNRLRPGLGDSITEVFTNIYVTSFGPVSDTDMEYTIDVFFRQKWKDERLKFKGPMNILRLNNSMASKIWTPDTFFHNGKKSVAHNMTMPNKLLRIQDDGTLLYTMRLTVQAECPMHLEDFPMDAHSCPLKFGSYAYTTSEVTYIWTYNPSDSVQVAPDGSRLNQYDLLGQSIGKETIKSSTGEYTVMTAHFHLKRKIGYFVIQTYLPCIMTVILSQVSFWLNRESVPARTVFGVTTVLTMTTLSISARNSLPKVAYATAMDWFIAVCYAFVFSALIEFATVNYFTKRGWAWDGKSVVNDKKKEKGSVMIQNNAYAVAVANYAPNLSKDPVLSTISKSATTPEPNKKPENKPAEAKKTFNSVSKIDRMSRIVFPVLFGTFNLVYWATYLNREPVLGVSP

SMILES | Ki [1] | Ki [2] | Ki [3] | Ki [4] | Ki [5] | Ki [6]
CC(=O)C1CCC2C3CC[C@H]4C[C@H](O)CC[C@]4(C)C3CC[C@]12C (stereo partly specified) [Allopregnanolone] | 1900 nM | 17.5 nM | 41 nM | 20 nM | 21 nM | 
C[C@]12CC[C@H]3[C@@H](CC[C@@H]4C[C@@](O)(C(F)(F)F)CC[C@@H]43)[C@@H]1CC[C@@H]2C(=O)CO [GMA-839] | 2300 nM | 200 nM | 200 nM | 96 nM | 210 nM | 2000 nM
